According to patent US20190030009A1, “COMPOUNDS AND COMPOSITIONS FOR THE TREATMENT OF CRYPTOSPORIDIOSIS” (Novartis AG, priority 2016, published 2019):

Tests used:
Cryptosporidium parvum = experiment: Cytopathic effect (CPE) based assay, C. parvum infected HCT-8 cells; conditions: HCT-8 host cell viability (CellTiter-Glo), 48 hours treatment, read-out: Cp CPE EC50
Method: Human ileocecal colorectal adenocarcinoma cells (HCT-8 [HRT-18] ATCC, CCL-34) were maintained in T-175 flasks (Corning, 431080) in complete growth medium (RPMI-1640 medium (Gibco, 11875) supplemented with 10% heat-inactivated horse serum (Gibco, 26050), 1×MEM non-essential amino acids (Gibco, 11140), 10 mM HEPES (Gibco, 15630), 100 units/mL penicillin, and 100 units/mL streptomycin) at 37° C. and 5% CO2 in a humidified incubator. Cultures were passaged twice weekly using 10 mL of 1×Phosphate-Buffered Saline (PBS) without Ca^2+ and Mg^2+ (Gibco, 20012) for washing and 3-5 mL per T-175 flask of TrypLE Express Enzyme (Gibco, 12604) for dissociation of adherent cells.
Cryptosporidium parvum oocysts purchased from the Sterling Laboratory, University of Arizona (Iowa isolate) were purified from infected calf feces using discontinuous sucrose and cesium chloride centrifugation gradients and stored in PBS solution containing 0.01% Tween 20, 100 units/mL penicillin and 100 units/mL gentamicin.
Excystation and infection protocols were developed following established methods with some modifications (Gut & Nelson, 1999, Upton et aL, 1995, Bessoff et aL, 2013). Briefly, oocysts were primed in 1 mL of 10 mM hydrochloric acid in 1× Hank's Balanced Salt Solution (HBSS) (Gibco, 14025) for 10 minutes with agitation at 1000 rpm, 37° C. on an Eppendorf thermomixer, then washed twice with 1 mL of room temperature non-acidic 1× HBSS by centrifugation at 13,000 rpm for 3 minutes at 25° C. Primed oocysts were further excysted at a concentration of 1×10^6 oocysts/μL in parasite infection medium consisting of a pre-warmed and pre-gassed 1:1 formulation of Leibovitz's L-15 medium (Gibco, 11415) and UltraCULTURE medium (Lonza, 12-725F) supplemented with 2 mM sodium taurocholate (Sigma, 86339-1), 10% heat-inactivated horse serum, and 200 μM L-ascorbic acid (Sigma, 95210) at 25° C. for 10 minutes. HCT-8 monolayer cells were infected with excysted cryptosporidium at a specified multiplicity of infection (MOI). All dilutions for subsequent assays were performed in parasite infection medium without sodium taurocholate. Pre-excysted oocysts were enumerated microscopically using a C-Chip disposable hemocytometer (NanoEnTek, DHC-N01).
Compound powders were dissolved in neat DMSO (Fisher, D4121) to 10 mM and stored at 4° C. prior to dilution into source plates. Dilutions were carried out using a Microlab STAR liquid handler (Hamilton) to obtain compound source plates containing the ten-point or eight-point three fold dilutions starting from 10 mM in duplicates. Source plates were stored at 4° C. prior to spotting into assay plates. Before administration, all compound source plates were equilibrated to room temperature. A specified volume of compounds from source plate were spotted to assay plate using an Echo Acoustic liquid handler (LABCYTE, 550) so that the final DMSO concentration was less than 0.5%. Each assay plate a specified number of DMSO-treated negative control wells and a well-studied potent active compound at 100 nM as positive control. As a quality control, all positive and negative-control wells were used to calculate a Z′-value and signal to noise ratio (S:N) for each plate.
Cryptosporidium spp are obligate-intracellular parasites that infect intestinal epithelial cells and the host cell is killed upon parasite egress. […] The loss of epithelial cells is due to both rapid parasite invasion/multiplication/egress and also pro-inflammatory immune response (Adams et al., 1994, Griffiths et al., 1994). We have observed a consistent cytopathic effect (CPE) in HCT-8 cells with C. spp infection the loss of viability of the host cells using CellTiter-Glo reagent.
Confluent HCT-8 cells in T-175 flasks were directly infected with excysted oocysts at an MOI (host to parasite) of 1:2 for C. parvum and 1:4 for C. hominis. The number of host-cells is determined using a NucleoCounter (Chemometec, NC-100) in a control flask. […]

[1] = Cytotoxicity against HepG2; format: cell-based; conditions: human, HepG2 cells (ATCC HB-8065), 5 days exposure
Method: Cytotoxicity against HepG2 (ATCC# HB-8065), a human liver cancer cell line, was determined as previously described earlier (Manjunatha et al., 2015). Briefly, cells were seeded at a density of 10^5 cells per well, incubated at 37° C. for 24 h and exposed to two-fold serially-diluted compounds for 5 days. Cell viability was monitored using the Cell Proliferation Kit II (Invitrogen). The cytotoxicity values of selected compounds are reported in the fifth column [HepG2 CC50 (μM)] of Table II.

| SMILES | EC50 (Cryptosporidium parvum) | CC50 at 5 days [1] |
| --- | --- | --- |
| CNC(=O)c1ccc(-c2cnn3ccc(C(=O)N(c4ccc(F)c(F)c4)C4CC4)cc23)cc1 [Example 130] | 0.235 µM | > 50 µM |
| CCN(C(=O)c1ccn2ncc(-c3ccc(S(=O)(=O)NC)cc3)c2c1)c1ccc(C#N)cn1 [Example 140] | 10.3 µM | 26.1 µM |
| CNC(=O)c1ccc(-c2cnn3ccc(C(=O)N(CCO)c4ccc(C#N)cc4)cc23)cc1 [Example 110] | > 20 µM | 23.8 µM |
| CNC(=O)c1ccc(-c2cnn3ccc(C(=O)N(c4ccc(C#N)cn4)C4CC4)cc23)cc1 [Example 93] | 0.152 µM | 28.1 µM |
| CNC(=O)c1ccc(-c2cnn3ccc(S(=O)(=O)N(C)c4ccc(C#N)cn4)cc23)cc1 [Example 163] | 0.197 µM | 8.48 µM |
| N#Cc1ccc(N(C(=O)c2ccn3ncc(-c4ccc(C(N)=O)cc4)c3c2)C2CC2)cc1 [Example 134] | 0.042 µM | 7.24 µM |
| CN(C(=O)c1ccn2ncc(-c3cnc(Cl)c(N)c3)c2c1)c1ccc(C#N)cn1 [Example 98] | 2.21 µM | 10.2 µM |
| CNC(=O)c1ccc(-c2cnn3ccc(C(=O)N(c4ccc(C#N)cn4)C4CC4)cc23)nc1 [Example 133] | 2.18 µM | 20.9 µM |
| CN(C(=O)c1ccn2ncc(-c3ccc(N)nc3)c2c1)c1ccc(C#N)cc1 [Example 41] | 0.097 µM | 24.1 µM |
| CNC(=O)c1ccc(-c2cnn3ccc(C(=O)N(c4ccc(C#N)cn4)C(C)C)cc23)nc1 [Example 154] | 0.964 µM | 45.7 µM |
| CN(C(=O)c1ccn2ncc(-c3cnc(N)c(C#N)c3)c2c1)c1ccc(C#N)cn1 [Example 85] | 0.639 µM | 30.4 µM |
| CNC(=O)c1ccc(-c2cnn3ccc(C(=O)Nc4ccc(C#N)cn4)cc23)cc1 [Example 106] | > 20 µM | > 50 µM |
| NC(=O)c1ccc(-c2cnn3ccc(C(=O)N(c4ccc(F)c(F)c4)C4CC4)cc23)cc1 [Example 135] | 0.279 µM | 31.1 µM |
| CCN(C(=O)c1ccn2ncc(-c3ccc(C(=O)NC)nc3)c2c1)c1ccc(C(F)(F)F)cn1 [Example 157] | 0.295 µM | 8.96 µM |
| N#Cc1ccc(N(C(=O)c2ccn3ncc(-c4ccc(C(N)=O)cn4)c3c2)C2CC2)nc1 [Example 139] | 2.07 µM | 16.7 µM |
| CN(C(=O)c1ccn2ncc(-c3ccc(C(=O)NC4CCNCC4)cc3)c2c1)c1ccc(C#N)cn1 [Example 113] | 19.4 µM | 2.67 µM |
| CCN(C(=O)c1ccn2ncc(-c3ccc(C(=O)NC)nc3)c2c1)c1ccc(F)cn1 [Example 159] | 5.37 µM | 9.81 µM |
| CNC(=O)c1ccc(-c2cnn3ccc(C(=O)N(c4ccc(Cl)cc4)C4CC4)cc23)cc1 [Example 116] | 0.007 µM | 3.01 µM |
| CNC(=O)c1ccc(-c2cnn3ccc(C(=O)N(c4ccc(F)cn4)C4CC4)cc23)cc1 [Example 125] | 0.709 µM | 25.5 µM |
| NC(=O)c1ccc(-c2cnn3ccc(C(=O)N4CCOc5cc(F)ccc54)cc23)cc1 [Example 71] | 0.571 µM | 1.82 µM |
| CNC(=O)c1ccc(-c2cnn3ccc(C(=O)N(C)c4ccc(Cl)cc4)cc23)cn1 [Example 109] | 0.129 µM | 16.9 µM |
| N#Cc1ccc(N(C2CC2)S(=O)(=O)c2ccn3ncc(-c4ccc(C(N)=O)cc4)c3c2)nc1 [Example 165] | 0.607 µM | 6.37 µM |
| CC1COc2cc(F)ccc2N1C(=O)c1ccn2ncc(-c3ccc(C(N)=O)cc3)c2c1 (centres unmarked) [Example 72] | 1.4 µM | 5.42 µM |
| CNC(=O)c1ccc(-c2cnn3ccc(S(=O)(=O)N(c4ccc(C#N)cn4)C4CC4)cc23)cc1 [Example 164] | – | 6.98 µM |
| CNC(=O)c1ccc(-c2cnn3ccc(C(=O)N(C)c4ccc(OCCN)cn4)cc23)cc1 [Example 111] | > 20 µM | > 50 µM |

| SMILES | EC50 (Cryptosporidium parvum) | CC50 at 5 days [1] |
| --- | --- | --- |
| N#Cc1ccc(N(C(=O)c2ccn3ncc(-c4ccc(C(N)=O)nc4)c3c2)C2CC2)cc1 [Example 138] | 0.49 µM | 8.1 µM |
| CN(C(=O)c1ccn2ncc(-c3cnc(Cl)c(NS(C)(=O)=O)c3)c2c1)c1ccc(C#N)cn1 [Example 107] | – | 39.7 µM |
| CN(C(=O)Nc1ccc(F)cc1)c1ccn2ncc(-c3ccc(C(F)(F)F)cc3)c2c1 [Example 47] | > 20 µM | – |
| CN(C(=O)c1ccn2ncc(-c3ccc(C(N)=O)cn3)c2c1)c1ccc(C#N)cn1 [Example 61] | 17.8 µM | – |
| CN(Cc1ccc(F)cc1)c1ccn2ncc(-c3ccc(C(F)(F)F)cc3)c2c1 [Example 36] | > 20 µM | – |
| CN(C(=O)c1ccc(F)cc1)c1ccn2ncc(-c3ccc(C(F)(F)F)cc3)c2c1 [Example 29] | > 20 µM | – |
| Cc1ccc(N(C)C(=O)c2ccn3ncc(-c4ccc(C(N)=O)cc4)c3c2)nc1 [Example 63] | 0.195 µM | – |
| C[C@H](N)C(=O)Nc1ccc(-c2cnn3ccc(C(=O)N(C)c4ccc(C#N)cc4)cc23)cc1 [Example 26] | 0.142 µM | – |
| CCN(C(=O)c1ccn2ncc(-c3ccc(C(=O)NC)cc3)c2c1)c1ccc(C#N)c(OCCO)n1 [Example 162] | – | 24.4 µM |
| CN(Cc1ccn2ncc(-c3ccc(C(F)(F)F)cc3)c2c1)c1ccc(F)cc1 [Example 2] | > 20 µM | – |
| CN(C(=O)c1ccc(Cl)cc1)c1ccn2ncc(-c3ccc(C(F)(F)F)cc3)c2c1 [Example 55] | 7.3 µM | – |
| CN(c1ccn2ncc(-c3ccc(C(F)(F)F)cc3)c2c1)S(=O)(=O)c1ccc(C#N)cc1 [Example 30] | > 20 µM | – |
| CN(C(=O)c1ccn2ncc(-c3ccc(C(F)(F)F)cn3)c2c1)c1ccc(C#N)cc1 [Example 24] | > 20 µM | – |
| Fc1ccc(CCc2ccn3ncc(-c4ccc(C(F)(F)F)cc4)c3c2)cc1 [Example 16] | > 20 µM | – |
| N#Cc1ccc(C(=O)N(CC2CCOCC2)c2ccn3ncc(-c4ccc(C(F)(F)F)cc4)c3c2)cc1 [Example 39] | > 20 µM | – |
| CNC(=O)c1ccc(-c2cnn3ccc(C(=O)N4c5ccc(F)cc5OCC4C)cc23)cc1 (centres unmarked) [Example 74] | 1.24 µM | – |
| CN(c1ccn2ncc(-c3ccc(C(F)(F)F)cc3)c2c1)S(=O)(=O)c1ccc(F)cc1 [Example 31] | > 20 µM | – |
| Fc1ccc(SCc2ccn3ncc(-c4ccc(C(F)(F)F)cc4)c3c2)cc1 [Example 21] | > 20 µM | – |
| CN(C(=O)c1ccc(F)cc1)c1ccn2ncc(-c3ccc(C(N)=O)cc3)c2c1 [Example 56] | 0.692 µM | – |
| CN(C(=O)c1ccc(C(F)(F)F)nc1)c1ccn2ncc(-c3ccc(C(F)(F)F)cc3)c2c1 [Example 37] | 3.79 µM | – |
| [O-][S+](Cc1ccn2ncc(-c3ccc(C(F)(F)F)cc3)c2c1)c1ccc(F)cc1 (centres unmarked) [Example 22] | > 20 µM | – |
| CN(C(=O)c1ccn2ncc(-c3ccc(C(N)=O)cc3)c2c1)c1ccc(C(F)(F)F)cn1 [Example 62] | 0.028 µM | – |
| CN(C(=O)c1ccc(C(F)(F)F)cn1)c1ccn2ncc(-c3ccc(C(F)(F)F)cc3)c2c1 [Example 38] | 4.71 µM | – |
| CC(=O)Nc1ccc(-c2cnn3ccc(C(=O)N(C)c4ccc(C#N)cn4)cc23)cc1 [Example 69] | 0.201 µM | – |
